Molecules are shown by their SMILES.

Holding throughout (format): biochemical
For assay [1], the target named is T1, PI3K alfa (Homo sapiens, UniProt P42336).
T1 construct: for the p110-a subunit (with a deletion of the first 20 amino acids); His tag (C); made in house; host or cells: baculovirus; Tn5 (Trichoplusia ni) or TiniPro insect cells
The assay is described as follows: PI3 kinase assay (Kinase-Glo luminescence), PI3K alfa. The following applies: Enzymatic Data; read-out: PI3K alfa IC50 [umol]. In a few lines: (§1)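 Recombinant PI3K constructs (alfa 10 nM, delta 10 nM, gamma 150 nM) with 1 μM ATP and 10 μg/mL phosphatidylinositol in Tris pH 7.5, MgCl2, NaCl, CHAPS, DTT; 60 min (alfa, delta) or 120 min (gamma) at room temperature. ATP depletion read by Kinase-Glo luminescence; IC50 from 4-parameter logistic fit over 8 concentrations.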

Assay [2] deals with T2, PI3K beta (Homo sapiens, UniProt P42338).
T2 construct: for the full-length p110-b subunit are generated and fused by overlapping PCR; His tag (C); made in house; host or cells: baculovirus; Tn5 (Trichoplusia ni) or TiniPro insect cells
The assay is described as follows: PI3 kinase assay (Kinase-Glo luminescence), PI3K beta. Particulars: Enzymatic Data; read-out: PI3K beta IC50 [umol]. In a few lines:
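PI3Kβ (25 nM, BV-949) with 10 μg/mL phosphatidylinositol in Tris pH 7.5/MgCl2/NaCl/CHAPS/DTT buffer; reaction started with 1 μM ATP, 60 min at room temperature. ATP depletion read by Kinase-Glo luminescence; 8-point dilutions, IC50 by four-parameter logistic fit.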

The target of assay [3] is T3, PI3K delta (Homo sapiens, UniProt O00329).
T3 construct: for the full-length p110-d subunit are generated and fused by overlapping PCR; His tag (C); made in house; host or cells: baculovirus; Tn5 (Trichoplusia ni) or TiniPro insect cells
The assay is described as follows: PI3 kinase assay (Kinase-Glo luminescence), PI3K delta. Particulars: Enzymatic Data; read-out: PI3K delta IC50 [umol]. The method in brief:
as §1

Assay [4] addresses T4, PI3K gamma (Homo sapiens, UniProt P48736).
T4 construct: PI3Kγ BV-950 p110g(D144aa)-C-Term His Tag; His tag (C); made in house; host or cells: construct from the Roger Williams lab (MRC LMB) in pVL1393; baculovirus; Tn5 (Trichoplusia ni) or TiniPro insect cells
The assay can be described thus: PI3 kinase assay (Kinase-Glo luminescence), PI3K gamma. The following applies: Enzymatic Data; read-out: PI3K gamma IC50 [umol]. In a few lines: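 Kinase-Glo luminescence assay with 1 μM ATP and 10 μg/mL phosphatidylinositol (final), reaction started by ATP addition. IC50 from 4-parameter logistic fit of percent inhibition at 8 compound concentrations (usually 10 down to 0.003 […]).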

T3 sequence (O00329 with tags, fused parts or gaps limits assumed): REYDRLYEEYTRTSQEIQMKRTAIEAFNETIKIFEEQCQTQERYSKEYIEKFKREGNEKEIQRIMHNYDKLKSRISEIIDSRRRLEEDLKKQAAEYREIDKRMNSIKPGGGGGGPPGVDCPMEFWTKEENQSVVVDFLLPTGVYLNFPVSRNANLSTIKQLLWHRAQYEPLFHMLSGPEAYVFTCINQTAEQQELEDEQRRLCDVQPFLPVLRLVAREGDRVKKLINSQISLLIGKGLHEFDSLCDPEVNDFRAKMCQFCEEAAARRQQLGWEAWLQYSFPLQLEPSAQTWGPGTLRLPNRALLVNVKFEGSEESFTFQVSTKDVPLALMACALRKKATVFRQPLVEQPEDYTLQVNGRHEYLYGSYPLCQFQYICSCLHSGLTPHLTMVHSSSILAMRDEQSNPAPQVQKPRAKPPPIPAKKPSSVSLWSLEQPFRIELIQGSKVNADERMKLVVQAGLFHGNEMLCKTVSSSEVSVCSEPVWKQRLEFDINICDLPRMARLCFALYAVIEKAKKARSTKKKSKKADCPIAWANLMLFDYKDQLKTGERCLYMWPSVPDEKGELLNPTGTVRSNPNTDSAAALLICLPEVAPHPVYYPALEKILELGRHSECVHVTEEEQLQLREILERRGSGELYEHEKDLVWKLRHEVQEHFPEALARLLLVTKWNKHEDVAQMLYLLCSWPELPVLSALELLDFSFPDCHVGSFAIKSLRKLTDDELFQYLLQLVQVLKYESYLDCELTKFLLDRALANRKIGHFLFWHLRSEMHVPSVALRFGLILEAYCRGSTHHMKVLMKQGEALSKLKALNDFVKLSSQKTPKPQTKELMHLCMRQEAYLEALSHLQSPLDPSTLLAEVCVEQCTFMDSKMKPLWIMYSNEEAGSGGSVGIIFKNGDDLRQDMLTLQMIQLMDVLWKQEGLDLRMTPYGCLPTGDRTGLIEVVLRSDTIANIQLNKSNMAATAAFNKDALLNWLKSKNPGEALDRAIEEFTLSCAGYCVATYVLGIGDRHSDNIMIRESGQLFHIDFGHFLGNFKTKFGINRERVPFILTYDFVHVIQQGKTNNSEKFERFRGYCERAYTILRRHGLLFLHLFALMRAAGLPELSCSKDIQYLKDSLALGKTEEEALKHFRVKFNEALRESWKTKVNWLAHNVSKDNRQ
T4 sequence (P48736 144-1102 limits assumed): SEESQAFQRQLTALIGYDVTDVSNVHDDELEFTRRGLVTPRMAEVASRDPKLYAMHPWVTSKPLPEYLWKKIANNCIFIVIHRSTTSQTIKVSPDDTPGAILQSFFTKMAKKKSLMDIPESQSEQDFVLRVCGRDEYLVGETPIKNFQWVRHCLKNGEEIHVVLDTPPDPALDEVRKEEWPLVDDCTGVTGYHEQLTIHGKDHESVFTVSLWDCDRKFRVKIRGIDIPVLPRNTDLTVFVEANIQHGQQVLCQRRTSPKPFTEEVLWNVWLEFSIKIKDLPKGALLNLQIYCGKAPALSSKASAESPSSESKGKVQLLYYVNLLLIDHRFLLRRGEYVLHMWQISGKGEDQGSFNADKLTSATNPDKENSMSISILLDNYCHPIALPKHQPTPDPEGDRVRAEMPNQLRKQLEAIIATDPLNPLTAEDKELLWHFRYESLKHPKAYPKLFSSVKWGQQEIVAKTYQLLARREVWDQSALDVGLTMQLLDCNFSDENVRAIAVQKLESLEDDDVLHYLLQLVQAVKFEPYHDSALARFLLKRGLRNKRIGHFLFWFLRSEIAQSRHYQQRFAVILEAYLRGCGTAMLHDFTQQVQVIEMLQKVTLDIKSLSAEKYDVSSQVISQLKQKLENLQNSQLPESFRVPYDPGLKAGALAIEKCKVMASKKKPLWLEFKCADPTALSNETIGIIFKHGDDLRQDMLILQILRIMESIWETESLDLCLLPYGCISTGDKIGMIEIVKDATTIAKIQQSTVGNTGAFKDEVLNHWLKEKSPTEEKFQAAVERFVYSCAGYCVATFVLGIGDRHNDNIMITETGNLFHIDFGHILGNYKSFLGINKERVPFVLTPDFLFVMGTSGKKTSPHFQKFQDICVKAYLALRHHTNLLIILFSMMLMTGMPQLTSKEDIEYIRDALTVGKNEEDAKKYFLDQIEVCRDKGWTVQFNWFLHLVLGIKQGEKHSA
T2 sequence (P42338 with tags, fused parts or gaps limits assumed): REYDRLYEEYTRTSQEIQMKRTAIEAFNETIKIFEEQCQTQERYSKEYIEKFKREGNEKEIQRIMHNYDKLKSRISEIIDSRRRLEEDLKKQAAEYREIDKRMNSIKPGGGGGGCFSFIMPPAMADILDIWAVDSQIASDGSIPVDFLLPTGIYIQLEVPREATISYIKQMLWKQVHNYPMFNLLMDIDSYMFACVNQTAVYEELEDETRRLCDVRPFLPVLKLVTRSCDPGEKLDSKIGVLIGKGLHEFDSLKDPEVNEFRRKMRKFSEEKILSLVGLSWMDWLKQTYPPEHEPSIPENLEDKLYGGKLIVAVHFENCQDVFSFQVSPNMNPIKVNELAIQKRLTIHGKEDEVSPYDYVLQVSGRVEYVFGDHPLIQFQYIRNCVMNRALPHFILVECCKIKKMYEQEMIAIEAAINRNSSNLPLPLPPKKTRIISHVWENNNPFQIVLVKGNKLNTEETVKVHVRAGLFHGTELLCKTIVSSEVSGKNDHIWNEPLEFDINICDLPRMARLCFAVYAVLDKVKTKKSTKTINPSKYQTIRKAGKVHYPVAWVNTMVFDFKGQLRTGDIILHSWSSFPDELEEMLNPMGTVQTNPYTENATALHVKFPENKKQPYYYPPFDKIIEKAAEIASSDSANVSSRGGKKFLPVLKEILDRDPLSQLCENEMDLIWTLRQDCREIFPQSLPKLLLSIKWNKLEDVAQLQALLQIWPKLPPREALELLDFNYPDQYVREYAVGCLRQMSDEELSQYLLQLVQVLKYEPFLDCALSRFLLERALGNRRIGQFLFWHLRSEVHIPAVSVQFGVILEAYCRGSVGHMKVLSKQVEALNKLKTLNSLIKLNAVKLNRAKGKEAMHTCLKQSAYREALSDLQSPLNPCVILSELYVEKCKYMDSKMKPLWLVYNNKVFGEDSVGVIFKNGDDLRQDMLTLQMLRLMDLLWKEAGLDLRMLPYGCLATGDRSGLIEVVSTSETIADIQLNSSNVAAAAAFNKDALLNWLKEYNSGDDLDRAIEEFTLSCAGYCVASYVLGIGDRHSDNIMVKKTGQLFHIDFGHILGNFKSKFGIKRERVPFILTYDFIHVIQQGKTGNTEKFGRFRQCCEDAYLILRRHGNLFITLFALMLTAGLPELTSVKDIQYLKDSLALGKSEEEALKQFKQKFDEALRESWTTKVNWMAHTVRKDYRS
T1 sequence (P42336 with tags, fused parts or gaps limits assumed): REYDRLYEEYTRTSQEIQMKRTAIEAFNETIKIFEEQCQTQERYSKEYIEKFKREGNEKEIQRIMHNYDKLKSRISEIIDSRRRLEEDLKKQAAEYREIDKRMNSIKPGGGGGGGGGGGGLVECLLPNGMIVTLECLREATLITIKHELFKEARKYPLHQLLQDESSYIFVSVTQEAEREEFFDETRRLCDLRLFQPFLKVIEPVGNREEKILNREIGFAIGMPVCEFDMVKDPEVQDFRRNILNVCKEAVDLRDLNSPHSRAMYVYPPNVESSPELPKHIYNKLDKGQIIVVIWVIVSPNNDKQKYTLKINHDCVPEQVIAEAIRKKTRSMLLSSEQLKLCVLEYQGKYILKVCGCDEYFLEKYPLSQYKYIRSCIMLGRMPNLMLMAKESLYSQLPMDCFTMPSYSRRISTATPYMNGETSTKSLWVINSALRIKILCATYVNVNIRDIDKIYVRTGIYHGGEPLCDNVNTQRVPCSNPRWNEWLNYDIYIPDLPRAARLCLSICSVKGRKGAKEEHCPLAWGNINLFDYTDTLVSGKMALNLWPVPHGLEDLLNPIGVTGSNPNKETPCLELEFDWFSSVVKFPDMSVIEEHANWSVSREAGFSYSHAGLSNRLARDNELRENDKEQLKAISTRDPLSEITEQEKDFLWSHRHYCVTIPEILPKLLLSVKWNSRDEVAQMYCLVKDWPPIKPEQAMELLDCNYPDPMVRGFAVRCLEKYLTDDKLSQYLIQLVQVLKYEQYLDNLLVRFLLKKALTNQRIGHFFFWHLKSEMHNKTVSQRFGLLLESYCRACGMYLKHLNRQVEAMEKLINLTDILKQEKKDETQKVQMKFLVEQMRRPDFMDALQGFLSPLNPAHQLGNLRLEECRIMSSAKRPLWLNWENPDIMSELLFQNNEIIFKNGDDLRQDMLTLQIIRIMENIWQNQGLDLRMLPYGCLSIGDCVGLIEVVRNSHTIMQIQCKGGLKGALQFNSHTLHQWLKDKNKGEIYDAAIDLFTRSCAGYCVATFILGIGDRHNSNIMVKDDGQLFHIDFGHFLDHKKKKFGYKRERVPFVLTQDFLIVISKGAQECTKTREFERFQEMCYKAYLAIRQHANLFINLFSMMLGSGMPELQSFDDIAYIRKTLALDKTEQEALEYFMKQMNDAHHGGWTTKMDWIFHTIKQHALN

Regarding `Nc1ncc(-c2ccc3ncc(-c4ccc(S(=O)(=O)CCN5CCOCC5)cc4)n3n2)cc1C(F)(F)F` [Example 105, 5-{3-[4-(2-Morpholin-4-yl-ethane-sulfonyl)-phenyl]-imidazo [1,2-b]pyridazin-6-yl}-3-trifluoro-methyl-pyridin-2-ylamine], the IC50 in assay [1] came out at 24 nM; in assay [2], 463 nM; in assay [3], 18 nM; in assay [4] it was 362 nM.

For `Nc1ncc(-c2ccc3ncc(-c4ccc(C(=O)N5CCN(CCN6CCOCC6)CC5)c(F)c4)n3n2)cc1C(F)(F)F` [Example 106, {4-[6-(6-Amino-5-trifluoro-methyl-pyridin-3-yl)-imidazo [1,2-b]pyridazin-3-yl]-2-fluoro-phenyl}-[4-(2-morpholin-4-yl-ethyl)-piperazin-1-yl]-methanone], the IC50 is 171 nM in assay [1], more than 9100 nM in assay [2], 291 nM in assay [3] and 788 nM in assay [4].

As to `CN(C)CCN1CCN(C(=O)c2ccc(-c3cnc4ccc(-c5cnc(N)c(C(F)(F)F)c5)nn34)cc2F)CC1` [Example 107, {4-[6-(6-Amino-5-trifluoro-methyl-pyridin-3-yl)-imidazo [1,2-b]pyridazin-3-yl]-2-fluoro-phenyl}-[4-(2-dimethyl-amino-ethyl)-piperazin-1-yl]-methanone], the IC50 is 26 nM in assay [1], 497 nM in assay [2], 30 nM in assay [3] and 827 nM in assay [4].

Consider `CCN(CC)CCNC(=O)c1ccc(-c2cnc3ccc(-c4cnc(N)c(C(F)(F)F)c4)nn23)cc1F` [Example 108, 4-[6-(6-Amino-5-trifluoro-methyl-pyridin-3-yl)-imidazo [1,2-b]pyridazin-3-yl]-N-(2-diethyl-amino-ethyl)-2-fluoro-benzamide], for which the IC50 is 91 nM in assay [1], 575 nM in assay [2], 142 nM in assay [3] and 565 nM in assay [4].

Take `COc1cc(-c2cnc3ccc(-c4cnc(N)c(C(F)(F)F)c4)nn23)ccc1C(=O)O` [Example 109, 4-[6-(6-Amino-5-trifluoromethyl-pyridin-3-yl)-imidazo [1,2-b]pyridazin-3-yl]-2-methoxy-benzoic acid]: the IC50 in assay [1] was 6 nM; in assay [2], 62 nM; in assay [3], 10 nM; in assay [4], 405 nM.

Regarding `COc1cc(-c2ccc3ncc(-c4cnc5[nH]ccc5c4)n3n2)ccc1OCCN1CCCC1=O` [Example 110, 1-(2-{2-Methoxy-4-[3-(1H-pyrrolo [2,3-b]pyridin-5-yl)-imidazo [1,2-b]pyridazin-6-yl]-phenoxy}-ethyl)-pyrrolidin-2-one], the IC50 in assay [1] came out at 40 nM; in assay [2], 1180 nM; in assay [3], 77 nM; in assay [4], 1370 nM.

As to `COc1cc(-c2ccc3ncc(-c4ccc(S(=O)(=O)CCN5CCOCC5)cc4)n3n2)ccc1OCCN1CCCC1=O` [Example 111, 1-[2-(2-Methoxy-4-{3-[4-(2-morpholin-4-yl-ethane-sulfonyl)-phenyl]-imidazo [1,2-b]pyridazin-6-yl}-phenoxy)-ethyl]-pyrrolidin-2-one], the IC50 in assay [1] was 954 nM; in assay [2], 7550 nM; in assay [3], 427 nM; in assay [4] it was more than 9100 nM.

In the case of `Nc1ncc(-c2ccc3ncc(-c4ccc(C(=O)N5CCN(Cc6cccnc6)CC5)c(F)c4)n3n2)cc1C(F)(F)F` [Example 112, {4-[6-(6-Amino-5-trifluoro-methyl-pyridin-3-yl)-imidazo [1,2-b]pyridazin-3-yl]-2-fluoro-phenyl}-(4-pyridin-3-ylmethyl-piperazin-1-yl)-methanone], the IC50 in assay [1] was determined as 12 nM; in assay [2], 623 nM; in assay [3], 14 nM; in assay [4], 956 nM.

In the case of `Nc1ncc(-c2ccc3ncc(-c4ccc(C(=O)N5CCN(CCO)CC5)c(F)c4)n3n2)cc1C(F)(F)F` [Example 113, {4-[6-(6-Amino-5-trifluoro-methyl-pyridin-3-yl)-imidazo [1,2-b]pyridazin-3-yl]-2-fluoro-phenyl}-[4-(2-hydroxy-ethyl)-piperazin-1-yl]-methanone], the IC50 came to 11 nM in assay [1], 68 nM in assay [2], 13 nM in assay [3] and 555 nM in assay [4].

For the molecule `Nc1ncc(-c2ccc3ncc(-c4ccc(C(=O)N5CCN(Cc6ccc(F)cc6)CC5)c(F)c4)n3n2)cc1C(F)(F)F` [Example 114, {4-[6-(6-Amino-5-trifluoromethyl-pyridin-3-yl)-imidazo [1,2-b]pyridazin-3-yl]-2-fluoro-phenyl}-[4-(4-fluoro-benzyl)-piperazin-1-yl]-methanone], the IC50 was found to be 140 nM in assay [1], 4070 nM in assay [2], 829 nM in assay [3] and 1440 nM in assay [4].

For the molecule `COc1cc(-c2cnc3ccc(-c4cnc(N)c(C(F)(F)F)c4)nn23)ccc1C(=O)NCCN1CCOCC1` [Example 115, 4-[6-(6-Amino-5-trifluoro-methyl-pyridin-3-yl)-imidazo [1,2-b]pyridazin-3-yl]-2-methoxy-N-(2-morpholin-4-yl-ethyl)-benzamide], the IC50 in assay [1] amounted to 9 nM; in assay [2], 78 nM; in assay [3], 22 nM; in assay [4], 397 nM.

Take `COc1cc(-c2cnc3ccc(-c4cnc(N)c(C(F)(F)F)c4)nn23)ccc1C(=O)N1CCN(Cc2ccccn2)CC1` [Example 116, {4-[6-(6-Amino-5-trifluoro-methyl-pyridin-3-yl)-imidazo [1,2-b]pyridazin-3-yl]-2-methoxy-phenyl}-(4-pyridin-2-ylmethyl-piperazin-1-yl)-methanone]: the IC50 was 3 nM in assay [1], 42 nM in assay [2], 4 nM in assay [3] and 410 nM in assay [4].

Regarding `COc1cc(-c2cnc3ccc(-c4cnc(N)c(C(F)(F)F)c4)nn23)ccc1C(=O)N1CCN(Cc2cccnc2)CC1` [Example 117, {4-[6-(6-Amino-5-trifluoro-methyl-pyridin-3-yl)-imidazo [1,2-b]pyridazin-3-yl]-2-methoxy-phenyl}-(4-pyridin-3-ylmethyl-piperazin-1-yl)-methanone], the IC50 was determined as 9 nM in assay [1], 217 nM in assay [2], 10 nM in assay [3] and 446 nM in assay [4].

Consider `COc1cc(-c2cnc3ccc(-c4cnc(N)c(C(F)(F)F)c4)nn23)ccc1C(=O)N1CCN(CCN2CCOCC2)CC1` [Example 118, {4-[6-(6-Amino-5-trifluoro-methyl-pyridin-3-yl)-imidazo [1,2-b]pyridazin-3-yl]-2-methoxy-phenyl}-[4-(2-morpholin-4-yl-ethyl)-piperazin-1-yl]-methanone], for which the IC50 in assay [1] was determined as 8 nM; in assay [2], 178 nM; in assay [3] it was 6 nM; in assay [4], 405 nM.

As for `COc1cc(-c2cnc3ccc(-c4cnc(N)c(C(F)(F)F)c4)nn23)ccc1C(=O)N1CCN(CC(=O)N2CCOCC2)CC1` [Example 119, 2-(4-{4-[6-(6-Amino-5-trifluoro-methyl-pyridin-3-yl)-imidazo [1,2-b]pyridazin-3-yl]-2-methoxy-benzoyl}-piperazin-1-yl)-1-morpholin-4-yl-ethanone], the IC50 is 9 nM in assay [1], 137 nM in assay [2], 13 nM in assay [3] and 406 nM in assay [4].

As for `COc1cc(-c2cnc3ccc(-c4cnc(N)c(C(F)(F)F)c4)nn23)ccc1C(=O)N1CCN(c2ccccn2)CC1` [Example 120, {4-[6-(6-Amino-5-trifluoro-methyl-pyridin-3-yl)-imidazo [1,2-b]pyridazin-3-yl]-2-methoxy-phenyl}-(4-pyridin-2-yl-piperazin-1-yl)-methanone], the IC50 in assay [1] worked out at 16 nM; in assay [2], 389 nM; in assay [3] it was 25 nM; in assay [4], 757 nM.

Regarding `Nc1ncc(-c2ccc3ncc(-c4ccc(S(N)(=O)=O)cc4)n3n2)cc1C(F)(F)F` [Example 121, 4-[6-(6-Amino-5-trifluoro-methyl-pyridin-3-yl)-imidazo [1,2-b]pyridazin-3-yl]-benzene-sulfon-amide], the IC50 in assay [1] is 24 nM; in assay [2], 19 nM; in assay [3], 26 nM; in assay [4], 3310 nM.

For the molecule `Nc1ncc(-c2cnc3ccc(-c4ccc(C(=O)NCCN5CCOCC5)cc4)nn23)cc1C(F)(F)F` [Example 122, 4-[3-(6-Amino-5-trifluoro-methyl-pyridin-3-yl)-imidazo [1,2-b]pyridazin-6-yl]-N-(2-morpholin-4-yl-ethyl)-benzamide], the IC50 was found to be 43 nM in assay [1], 986 nM in assay [2], 199 nM in assay [3] and 1400 nM in assay [4].

Values taken from US20100311729A1, “Substituted imidazopyridazines and pyrrolopyrimidines as lipid kinase inhibitors” (priority 2007, published 2010).
